Measured values taken from PMC10608985, “Retention Behavior of Anticancer Thiosemicarbazides in Biomimetic Chromatographic Systems and In Silico Calculations” (Molecules, 2023).

Key:
[1] = molecular target: T1, human serum albumin (HSA) (Homo sapiens, UniProt P02768); experiment: HPLC on immobilized HSA column, affinity and % plasma–protein binding; type: in vitro ADME; settings: for log K HSA: binding equilibrium constant from calibration curve (Equation 8) of log k HSA; for log k HSA: retention on HSA column, 50 mM ammonium acetate pH 7.4 / propan-2-ol 85/15 (v/v)
T1 construct: purchased Chiralpac
In short: (§1)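 Retention (log k) on immobilized-protein HPLC columns, 50 mM ammonium acetate pH 7.4 with propan-2-ol (85/15 for AGP), UV 280 nm, room temperature. log K read from drug calibration curves, then converted to %PPB.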

[2] = set-up: method as in Kozyra et al. [31]; settings: MeOH/20 mM acetate buffer, pH 7.4, ref Kozyra et al. [31], cited from earlier work; for log kw C-18: intercept of Soczewiński–Wachtmeister equation (water as mobile phase); for -S C-18: slope of Soczewiński–Wachtmeister equation
[3] = HPLC lipophilicity on cholesterol (Chol) stationary phase; type: physicochemical; settings: pH 7.4; for Log k Chol: Table S3; for log kw Chol: intercept, linear extrapolation to water; for log kw Chol / -S Chol: MeOH/20 mM acetate buffer; for -S Chol: slope of Soczewiński–Wachtmeister equation
In short: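 Cholesterol-bonded column run isocratically with MeOH/20 mM acetate buffer at pH 7.4, MeOH fraction 0.3–0.8 (v/v), 0.35 mL/min, room temperature, UV 280 nm. t0 from citric acid; log kw (intercept) and slope S from Soczewiński–Wachtmeister regression of log k against modifier content.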

[4] = test system: α1-acid glycoprotein (AGP); experiment: HPLC on immobilized AGP column, affinity and % plasma–protein binding; type: in vitro ADME, human; settings: for log K AGP: binding equilibrium constant from calibration curve (Equation 9) of log k AGP; for fraction unbound: human, pH 7.4, % plasma–protein binding converted from log K AGP (Equation 10), read-out: %PPB AGP (converted); for log k AGP: retention on AGP column, 50 mM ammonium acetate pH 7.4 / propan-2-ol 85/15 (v/v)
In short: as §1

[5] = HPLC lipophilicity on IAM (immobilized artificial membrane, phosphatidylcholine) stationary phase; type: physicochemical; settings: pH 7.4; for Log k IAM: Table S2; for log kw IAM: intercept, linear extrapolation to water; for log kw IAM / -S IAM: ACN/20 mM phosphate buffer; for -S IAM: slope of Soczewiński–Wachtmeister equation
In short: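 Rexchrom IAM.PC.DD2 column with ACN/20 mM phosphate buffer pH 7.4 (0.15 M KCl), ACN fraction 0.05–0.4 v/v at 0.05 steps, 1 mL/min, UV 280 nm, room temperature; t0 from citric acid. log kw and slope S extrapolated via Soczewiński–Wachtmeister equation.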

T1 sequence (P02768 25-609): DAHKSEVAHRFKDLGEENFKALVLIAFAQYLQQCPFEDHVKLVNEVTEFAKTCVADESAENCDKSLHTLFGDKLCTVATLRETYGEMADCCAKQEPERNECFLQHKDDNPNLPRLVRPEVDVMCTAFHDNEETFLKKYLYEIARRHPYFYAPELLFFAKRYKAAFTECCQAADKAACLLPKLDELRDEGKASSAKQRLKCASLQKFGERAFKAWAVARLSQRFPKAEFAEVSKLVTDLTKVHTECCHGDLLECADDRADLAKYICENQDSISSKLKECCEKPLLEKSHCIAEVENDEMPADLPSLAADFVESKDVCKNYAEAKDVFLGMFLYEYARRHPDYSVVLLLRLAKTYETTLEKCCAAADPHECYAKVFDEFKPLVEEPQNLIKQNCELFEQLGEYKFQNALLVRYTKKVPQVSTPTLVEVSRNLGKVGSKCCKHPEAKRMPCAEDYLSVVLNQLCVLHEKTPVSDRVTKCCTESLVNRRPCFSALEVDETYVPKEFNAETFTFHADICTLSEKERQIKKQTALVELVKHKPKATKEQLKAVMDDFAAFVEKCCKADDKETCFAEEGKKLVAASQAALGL

Row | log K HSA [1] | log k HSA [1] | Log k Chol ([3]; MeOH 0.40 v/v in mobile phase) | Log k Chol ([3]; MeOH 0.45 v/v in mobile phase) | Log k Chol ([3]; MeOH 0.50 v/v in mobile phase) | Log k Chol ([3]; MeOH 0.60 v/v in mobile phase) | Log k Chol ([3]; MeOH 0.80 v/v in mobile phase) | log kw Chol [3] | -S Chol [3] | log K AGP [4] | fraction unbound [4] | log k AGP [4] | Log k IAM ([5]; ACN 0.15 v/v in mobile phase) | Log k IAM ([5]; ACN 0.20 v/v in mobile phase) | Log k IAM ([5]; ACN 0.25 v/v in mobile phase) | Log k IAM ([5]; ACN 0.30 v/v in mobile phase) | Log k IAM ([5]; ACN 0.35 v/v in mobile phase) | log kw IAM [5] | SMILES | log kw C-18 [2] | -S C-18 [2] | other results
1 | 1.2852 | 0.9823 | 0.696 | 0.523 | 0.179 | -0.078 | -0.997 | 2.4029 | 4.2398 | 0.3891 | 0.283 | 0.2424 | 0.336 | 0.088 | -0.150 | -0.484 | -0.467 | 1.1652 | O=C(COc1ccccc1)NNC(=S)Nc1ccc(F)cc1 [Compound 9] | 2.1145 | 4.2984 | fraction unbound ([1]; human, pH 7.4, % plasma–protein binding converted from log K HSA (Equation 10), read-out: %PPB HSA (converted)): 0.04; Log k Chol ([3]; MeOH 0.30 v/v in mobile phase): 1.111; Log k Chol ([3]; MeOH 0.35 v/v in mobile phase): 0.970; Log k IAM ([5]; ACN 0.05 v/v in mobile phase): 1.054; Log k IAM ([5]; ACN 0.10 v/v in mobile phase): 0.588; -S IAM [5]: 5.1370
2 | 2.1342 | 1.7890 | 1.443 | 1.026 | 0.834 | 0.522 | -0.984 | 3.7019 | 5.6623 | 0.8556 | 0.114 | 0.7664 | 1.304 | 0.952 | 0.573 | 0.088 | -0.074 | 2.3083 | O=C(COc1ccccc1)NNC(=S)Nc1cccc(I)c1 [Compound 8] | 3.0072 | 4.9651 | Log k Chol ([3]; MeOH 0.70 v/v in mobile phase): -0.165; Log k IAM ([5]; ACN 0.40 v/v in mobile phase): -0.404; -S IAM [5]: 6.9157
